Assay results reported in ChEMBL document CHEMBL1134035, “Novel 5,5-disubstitutedpyrimidine-2,4,6-triones as selective MMP inhibitors” (Bioorg Med Chem Lett, 2001).

Columns and labels:
[1] = molecular target: 72 kDa type IV collagenase (Homo sapiens, UniProt P08253); assay: Inhibition of Gelatinase A, matrix metalloprotease-2
[2] = molecular target: Matrix metalloproteinase-9 (Homo sapiens, UniProt P14780); assay: Inhibition of Gelatinase B, matrix metalloprotease-9
[3] = molecular target: T1, Matrilysin (Homo sapiens, UniProt P09237); assay: Inhibition of matrilysin, Matrix metalloprotease-7
T1 sequence (P09237 whole entry): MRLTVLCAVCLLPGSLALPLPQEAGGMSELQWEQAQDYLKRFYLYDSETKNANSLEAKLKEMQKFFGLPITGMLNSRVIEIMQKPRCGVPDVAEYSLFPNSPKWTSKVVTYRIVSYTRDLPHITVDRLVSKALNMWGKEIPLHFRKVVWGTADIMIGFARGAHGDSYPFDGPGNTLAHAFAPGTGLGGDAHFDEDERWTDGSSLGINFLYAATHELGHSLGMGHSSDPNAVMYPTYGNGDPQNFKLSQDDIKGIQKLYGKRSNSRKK

[4] = molecular target: T2, Interstitial collagenase (Homo sapiens, UniProt P03956); assay: Inhibition of Matrix metalloprotease-1
T2 sequence (P03956 whole entry): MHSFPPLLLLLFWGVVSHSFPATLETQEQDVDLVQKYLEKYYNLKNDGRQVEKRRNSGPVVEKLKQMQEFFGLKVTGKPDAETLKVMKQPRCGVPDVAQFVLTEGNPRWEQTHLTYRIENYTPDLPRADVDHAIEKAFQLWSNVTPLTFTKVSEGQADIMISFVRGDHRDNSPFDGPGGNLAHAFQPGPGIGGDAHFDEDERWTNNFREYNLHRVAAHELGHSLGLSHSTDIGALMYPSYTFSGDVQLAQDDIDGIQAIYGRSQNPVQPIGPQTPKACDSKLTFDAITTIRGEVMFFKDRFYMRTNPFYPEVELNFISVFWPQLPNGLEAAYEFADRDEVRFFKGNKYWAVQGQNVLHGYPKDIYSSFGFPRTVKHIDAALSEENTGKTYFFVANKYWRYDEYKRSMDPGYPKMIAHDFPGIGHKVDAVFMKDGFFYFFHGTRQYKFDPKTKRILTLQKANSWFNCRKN

[5] = molecular target: Stromelysin-1 (Homo sapiens, UniProt P08254); assay: Inhibition of Stromelysin, matrix metalloprotease-3
Stromelysin-1, sequence (P08254 whole entry): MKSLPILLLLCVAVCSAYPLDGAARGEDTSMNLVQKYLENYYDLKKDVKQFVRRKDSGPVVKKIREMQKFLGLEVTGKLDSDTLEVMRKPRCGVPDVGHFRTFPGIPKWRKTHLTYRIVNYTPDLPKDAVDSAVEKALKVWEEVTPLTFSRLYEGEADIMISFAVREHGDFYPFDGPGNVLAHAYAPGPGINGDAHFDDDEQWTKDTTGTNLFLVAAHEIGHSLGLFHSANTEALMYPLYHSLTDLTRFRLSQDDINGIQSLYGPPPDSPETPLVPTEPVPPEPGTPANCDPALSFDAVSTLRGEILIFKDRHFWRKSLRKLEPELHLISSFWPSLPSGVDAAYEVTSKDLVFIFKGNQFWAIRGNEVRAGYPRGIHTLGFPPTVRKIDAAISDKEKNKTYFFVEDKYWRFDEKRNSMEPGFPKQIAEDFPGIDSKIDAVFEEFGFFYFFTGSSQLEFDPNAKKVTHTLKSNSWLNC

[6] = molecular target: Neutrophil collagenase (Homo sapiens, UniProt P22894); assay: Inhibition of human neutrophil collagenase-I, Matrix metalloprotease-8
Neutrophil collagenase, sequence (P22894 whole entry): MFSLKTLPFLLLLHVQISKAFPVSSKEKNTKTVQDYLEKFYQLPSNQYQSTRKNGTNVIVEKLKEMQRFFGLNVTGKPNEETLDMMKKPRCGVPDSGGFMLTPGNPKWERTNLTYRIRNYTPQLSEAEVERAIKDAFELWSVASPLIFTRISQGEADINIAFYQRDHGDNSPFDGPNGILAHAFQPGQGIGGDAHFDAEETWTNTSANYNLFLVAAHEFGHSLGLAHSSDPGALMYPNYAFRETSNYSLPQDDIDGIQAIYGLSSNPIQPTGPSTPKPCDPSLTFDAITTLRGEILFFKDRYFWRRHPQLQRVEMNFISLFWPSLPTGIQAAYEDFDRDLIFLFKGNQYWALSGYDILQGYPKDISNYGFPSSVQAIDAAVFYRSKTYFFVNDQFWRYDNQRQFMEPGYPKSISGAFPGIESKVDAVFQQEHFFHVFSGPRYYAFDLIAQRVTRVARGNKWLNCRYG

72 kDa type IV collagenase, sequence (P08253 whole entry): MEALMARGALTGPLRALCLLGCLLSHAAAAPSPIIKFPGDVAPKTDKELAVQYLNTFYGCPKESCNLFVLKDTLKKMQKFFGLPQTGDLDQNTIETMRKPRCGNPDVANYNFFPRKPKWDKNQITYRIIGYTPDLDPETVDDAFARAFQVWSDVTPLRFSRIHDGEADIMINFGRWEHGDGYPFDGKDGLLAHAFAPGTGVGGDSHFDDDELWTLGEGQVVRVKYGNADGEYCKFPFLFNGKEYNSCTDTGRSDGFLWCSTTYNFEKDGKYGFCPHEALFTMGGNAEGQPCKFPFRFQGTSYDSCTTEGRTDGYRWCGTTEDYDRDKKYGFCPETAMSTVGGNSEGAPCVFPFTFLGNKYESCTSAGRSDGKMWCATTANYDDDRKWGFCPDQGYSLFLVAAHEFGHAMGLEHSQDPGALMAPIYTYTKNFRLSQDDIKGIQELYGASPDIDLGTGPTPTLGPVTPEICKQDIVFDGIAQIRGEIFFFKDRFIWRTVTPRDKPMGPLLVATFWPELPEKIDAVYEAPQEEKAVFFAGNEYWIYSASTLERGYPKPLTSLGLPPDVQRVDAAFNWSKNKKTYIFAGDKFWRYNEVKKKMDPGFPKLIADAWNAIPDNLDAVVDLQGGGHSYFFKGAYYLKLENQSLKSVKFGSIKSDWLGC
Matrix metalloproteinase-9, sequence (P14780 whole entry): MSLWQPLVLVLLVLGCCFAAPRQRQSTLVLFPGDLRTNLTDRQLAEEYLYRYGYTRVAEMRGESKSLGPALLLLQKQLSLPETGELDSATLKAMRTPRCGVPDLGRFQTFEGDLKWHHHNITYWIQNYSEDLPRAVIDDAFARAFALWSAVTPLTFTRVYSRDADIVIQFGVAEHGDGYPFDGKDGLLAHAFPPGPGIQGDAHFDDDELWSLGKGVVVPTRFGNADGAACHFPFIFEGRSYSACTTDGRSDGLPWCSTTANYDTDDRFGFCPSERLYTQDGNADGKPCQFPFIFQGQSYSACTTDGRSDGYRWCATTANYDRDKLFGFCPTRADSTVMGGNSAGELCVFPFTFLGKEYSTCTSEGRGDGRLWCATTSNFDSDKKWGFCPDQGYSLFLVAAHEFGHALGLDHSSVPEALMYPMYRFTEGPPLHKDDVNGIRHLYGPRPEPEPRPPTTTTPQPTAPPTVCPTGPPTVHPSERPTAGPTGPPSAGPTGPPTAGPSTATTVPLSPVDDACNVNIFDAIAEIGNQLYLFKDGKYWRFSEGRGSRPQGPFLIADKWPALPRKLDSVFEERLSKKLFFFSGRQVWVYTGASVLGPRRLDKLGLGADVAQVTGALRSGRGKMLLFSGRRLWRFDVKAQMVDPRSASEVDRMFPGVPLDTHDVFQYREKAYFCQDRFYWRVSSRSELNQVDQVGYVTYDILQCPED

SMILES: O=C1NC(=O)C(COCc2ccccc2)(c2ccc(Oc3ccccc3)cc2)C(=O)N1
- IC50 [1]: 19 nM
- IC50 [2]: 17 nM
- IC50 [3]: > 50000 nM
- IC50 [4]: > 2000 nM
- IC50 [5]: 930 nM

SMILES: CC1(c2ccccc2)C(=O)NC(=O)NC1=O
- IC50 [1]: 50000 nM
- IC50 [2]: 11000 nM
- IC50 [3]: > 50000 nM
- IC50 [4]: > 2000 nM

SMILES: CCCCCCCCOc1ccc(CC2(C)C(=O)NC(=O)NC2=O)cc1
- IC50 [1]: 530 nM
- IC50 [2]: 164 nM
- IC50 [3]: > 50000 nM
- IC50 [4]: > 2000 nM
- IC50 [5]: 1000 nM

SMILES: O=C1NC(=O)C(CCO)(c2ccc(Oc3ccccc3)cc2)C(=O)N1
- IC50 [3]: > 50000 nM
- IC50 [4]: > 2000 nM

SMILES: O=C1NC(=O)C(c2ccc(Oc3ccccc3)cc2)C(=O)N1
- IC50 [1]: 9000 nM
- IC50 [2]: 14000 nM
- IC50 [3]: > 50000 nM
- IC50 [4]: > 2000 nM

SMILES: CN1C(=O)NC(=O)C(C)(c2ccc(Oc3ccccc3)cc2)C1=O (stereo not drawn)
- IC50 [1]: > 50000 nM
- IC50 [2]: > 50000 nM
- IC50 [3]: > 50000 nM
- IC50 [4]: > 2000 nM

SMILES: CCCCCCC1(c2ccc(-c3ccccc3)cc2)C(=O)NC(=O)NC1=O
- IC50 [1]: 868 nM
- IC50 [2]: 863 nM
- IC50 [3]: > 50000 nM
- IC50 [4]: > 2000 nM

SMILES: CCCCCCC1(c2ccccc2)C(=O)NC(=O)NC1=O
- IC50 [1]: 1300 nM
- IC50 [2]: 330 nM
- IC50 [3]: > 50000 nM
- IC50 [4]: > 2000 nM
- IC50 [5]: 30000 nM

SMILES: CCCCCCC1(c2ccc(-c3ccccc3)cc2)C(=O)NC(=S)NC1=O
- IC50 [1]: 13000 nM
- IC50 [2]: 12000 nM
- IC50 [3]: > 50000 nM
- IC50 [4]: > 2000 nM

SMILES: CC1(c2ccc(Oc3ccccc3)cc2)C(=O)NC(=O)NC1=O
- IC50 [1]: 81 nM
- IC50 [6]: 81 nM
- IC50 [3]: > 50000 nM
- IC50 [4]: > 2000 nM
- IC50 [5]: 2000 nM

SMILES: CCCCCCC1(c2ccc(Oc3ccccc3)cc2)C(=O)NC(=O)NC1=O
- IC50 [1]: 21 nM
- IC50 [2]: 18 nM
- IC50 [6]: 130 nM
- IC50 [3]: > 50000 nM
- IC50 [4]: > 2000 nM
- IC50 [5]: 2000 nM

SMILES: CCC1(c2ccc(-c3ccccc3)cc2)C(=O)NC(=O)NC1=O
- IC50 [1]: 898 nM
- IC50 [2]: 696 nM
- IC50 [3]: > 50000 nM
- IC50 [4]: > 2000 nM
- IC50 [5]: 9000 nM
